Data taken from patent US20250154163A1, “Pyrimidinone-Containing 17-Beta-Hydroxysteroid Dehydrogenase Type 13 Inhibitors” (ENANTA PHARMACEUTICALS, INC., priority 2023, published 2025).

Target: T1, human HSD17β13 (stable HEK293T cell line overexpressing human HSD17β13) (Homo sapiens, UniProt Q7Z5P4)
T1 construct: expressed in transfected cells
T1 sequence (Q7Z5P4 20-300): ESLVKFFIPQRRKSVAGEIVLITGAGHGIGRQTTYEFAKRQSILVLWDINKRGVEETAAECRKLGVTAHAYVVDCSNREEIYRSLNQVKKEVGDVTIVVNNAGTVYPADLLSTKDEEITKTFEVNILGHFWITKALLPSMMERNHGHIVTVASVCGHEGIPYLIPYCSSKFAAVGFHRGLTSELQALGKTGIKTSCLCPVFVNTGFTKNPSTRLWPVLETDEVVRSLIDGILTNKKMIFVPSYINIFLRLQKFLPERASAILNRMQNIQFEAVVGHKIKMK
Assay: HSD17β13 inhibitor cell-based screening assay (conversion of estradiol-d2 to estrone-d2 by RF-MS)
Details: conversion of estradiol-d2 to estrone-d2 after 24 hours
Method: The purpose of this cell-based assay is to determine the cellular efficacy (IC50) of HSD17β13 inhibitors in a stable HEK293 T cell line overexpressing human HSD17β13. The assay measures by Rapid Fire mass-spectrometry (RF-MS) the conversion of estradiol-d2 to estrone-d2. Cytotoxicity was also assessed via luminescent signal generated by the ATPlite viability assay reagent. To screen compounds for HSD17013 inhibition, black 384-well plates were seeded with 1000× concentration of compounds in a 9-point 1:3 dilution curve (final top concentration of 10 μM) as well as 1000× concentration of 17β-estradiol-d2 (5 μM final concentration) added to all wells. HEK293T cells stably overexpressing human HSD17013 and the parent HEK293T cell lines were then seeded in the plates on top of the compounds and substrate in MEM media containing 1% charcoal/dextran-treated FBS. Supernatant is collected and immediately frozen after 24 hours of incubation, and conversion of estradiol-d2 to estrone-d2 is measured at Pure Honey by RF-MS. The remaining media in the plate was removed from the wells and replaced with ATPlite viability assay reagent. Luminescent signal from the ATPlite reagent was measured on the Envision plate reader. 10 μL of 10 mM compounds stocks (1000×) dissolved in DMSO were pipetted into the appropriate wells on the 384 LDV plate (Labcyte; cat. no.: LP-0200) and the appropriate volumes of DMSO solvent were included onto an intermediate plate to further dilute the compound stocks to complete the 9-pt dose curve (final top concentration of 10 μM). 10 μL per well of 5 mM estradiol-d2 (1000×) (Cayman; item no.: 9002846) (5 μM final concentration) dissolved in DMSO was seeded into the appropriate number of wells on the same source plate as the compounds. The Echo 650 (Labcyte) was used for compound dilutions and dispensing both the compounds and the substrate onto a dry 384-well black assay plate (Falcon/Corning; cat. no.:353962). Afterwards, cells were immediately counted and seeded onto the plate. Cells were cultured for expansion in EMEM (ATCC; cat. no.: 30-2003)+10% FBS (Hyclone; cat. no.: SH3007003)+1×PenStrep (Gibco; cat. no.: 15140-122). All media for stable cell line overexpressing HSD17013 also included […] zeocin (Invitrogen; cat. no.: 46-0509) for selection. To prepare cells for seeding into the 384-well assay plate, cells were trypsinized for 3 minutes in the incubator. The Trypsin-EDTA (0.25%) (Gibco; cat. no.: 25200056) was neutralized with EMEM complete culture medium warmed to 37° C. Cells were then centrifugated at 300×g for 5 minutes at room temperature. The cell pellet was resuspended in phenol red-free MEM (Gibco; cat. no.: 51200-038)+1% charcoal/dextran-treated FBS (Hyclone; cat. no.: SH3006803) and 1×PenStrep warmed to 37° C. Cells were then counted using the TC20 automated cell-counter (Bio-Rad) and disposable duel chamber counting slides (Bio-Rad; cat. no.: 1450016) for a cell density of 1.5E5 cells/mL to then seed into the assay plate at 7.5E3 cells/well with 50 μL of media per well. Prior to the 24-hour time point, a solution of 1% formic acid (10×) (Honeywell; cat. no.: 94318) in MEM phenol red-free MEM+1% charcoal/dextran-treated FBS and 1×PenStrep was made. ATPlite luminescent ATP detection reagent (PerkinElmer; cat. no.: 6016739) was prepared according to the manufacturer's instructions. A new 384-well Falcon plate (collection plate) was seeded with 2 μL per well of 10× formic acid and then 18 μL of cell supernatant was added onto the formic acid, resulting in a 20 μL per well solution of 0.1% formic acid (1×) in supernatant. The plate of collected supernatant was immediately frozen on dry ice before being stored at −80° C. The collection plate was shipped to Momentum Biotechnologies for analysis. The remaining supernatant in the assay plate was discarded and 25 μL of ATPlite reagent was added to each well. […]

SMILES | IC50 [nM]
COc1ccc(-c2nc3sc4c(O)c(Cl)ccc4c3c(=O)n2Cc2cnoc2)c(C2CC2)c1 [Example 57, 7-chloro-2-(2-cyclopropyl-4-methoxyphenyl)-8-hydroxy-3-(isoxazol-4-ylmethyl)benzo[4,5]thieno[2,3-d]pyrimidin-4(3H)-one] | < 100
COc1ccc(-c2nc3sc4c(O)c(Cl)ccc4c3c(=O)n2Cc2cc(C(F)F)no2)c(C2CC2)c1 [Example 199] | < 100
COc1ccc(-c2nc3sc4c(O)c(Cl)ccc4c3c(=O)n2Cc2cnn(C(F)(F)F)c2)c(C2CC2)c1 [Example 201] | < 100
COc1ccc(-c2nc3sc4c(O)c(Cl)ccc4c3c(=O)n2Cc2cn(C(F)F)nn2)c(C2CC2)c1 [Example 129] | < 100
N#Cc1ccc(-c2nc3sc4c(O)c(Cl)ccc4c3c(=O)n2Cc2cnco2)c(C2CC2)c1 [Example 111, 4-(7-chloro-8-hydroxy-3-(oxazol-5-ylmethyl)-4-oxo-3,4-dihydrobenzo[4,5]thieno[2,3-d]pyrimidin-2-yl)-3-cyclopropylbenzonitrile] | < 100
CCn1c(=O)c(C)cn(CCCn2c(-c3ccc(OC)cc3C3CC3)nc3sc4c(O)c(Cl)ccc4c3c2=O)c1=O [Example 127] | < 100
COc1ccc(-c2nc3sc4c(O)c(Cl)ccc4c3c(=O)n2Cc2ccc(C(F)(F)F)nc2)c(C2CC2)c1 [Example 153] | < 100
COc1ccc(-c2nc3sc4c(O)c(Cl)ccc4c3c(=O)n2Cc2ccncc2)c(C2CC2)c1 [Example 151] | < 100
COc1ccc(-c2nc3sc4c(O)c(Cl)ccc4c3c(=O)n2Cc2cnc(C3CC3)o2)c(C2CC2)c1 [Example 49, 7-chloro-2-(2-cyclopropyl-4-methoxyphenyl)-3-((2-cyclopropyloxazol-5-yl)methyl)-8-hydroxybenzo[4,5]thieno[2,3-d]pyrimidin-4(3H)-one] | < 100
Cc1ncc(Cn2c(-c3cc(F)c(F)cc3C3CC3)nc3sc4c(O)c(Cl)ccc4c3c2=O)o1 [Example 61, 7-chloro-2-(2-cyclopropyl-4,5-difluorophenyl)-8-hydroxy-3-((2-methyloxazol-5-yl)methyl)benzo[4,5]thieno[2,3-d]pyrimidin-4(3H)-one] | < 100
O=c1c2c(nc(-c3cnc(C(F)(F)F)cc3C3CC3)n1Cc1cnc(C(F)(F)F)nc1)sc1c(O)c(Cl)ccc12 [Example 178] | < 100
CCn1c(=O)c(C)cn(CCn2c(-c3ccc(OC)cc3C3CC3)nc3sc4c(O)c(Cl)ccc4c3c2=O)c1=O [Example 150] | 500 to 1000
O=c1c2c(nc(-c3cc(C(F)(F)F)ccc3C3CC3)n1Cc1cnco1)sc1c(O)c(Cl)ccc12 [Example 136] | < 100
O=c1c2c(nc(-c3cc(F)c(F)cc3C3CC3)n1Cc1nnc(C(F)(F)F)s1)sc1c(O)c(Cl)ccc12 [Example 217] | < 100
O=c1c2c(nc(-c3ccc4ccccc4c3C3CC3)n1Cc1cnco1)sc1c(O)c(Cl)ccc12 [Example 145] | < 100
Cc1cc(-c2nc3sc4c(O)c(Cl)ccc4c3c(=O)n2Cc2cnco2)c(C2CC2)s1 [Example 91] | < 100
Cn1cc(Cn2c(-c3ccc(S(C)(=O)=O)cc3C3CC3)nc3sc4c(O)c(Cl)ccc4c3c2=O)ccc1=O [Example 70, 7-chloro-2-(2-cyclopropyl-4-(methylsulfonyl)phenyl)-8-hydroxy-3-((1-methyl-6-oxo-1,6-dihydropyridin-3-yl)methyl)benzo[4,5]thieno[2,3-d]pyrimidin-4(3H)-one] | < 100
N#Cc1ccc(-c2nc3sc4c(O)c(Cl)ccc4c3c(=O)n2Cc2ccc(C(F)(F)F)nc2)c(C2CC2)c1 [Example 113, 4-(7-chloro-8-hydroxy-4-oxo-3-((6-(trifluoromethyl)pyridin-3-yl)methyl)-3,4-dihydrobenzo[4,5]thieno[2,3-d]pyrimidin-2-yl)-3-cyclopropylbenzonitrile] | < 100

SMILES | IC50 [nM]
Cn1ncc2cc(C3CC3)c(-c3nc4sc5c(O)c(Cl)ccc5c4c(=O)n3Cc3cnco3)cc21 [Example 194] | 500 to 1000
O=c1c2c(nc(-c3ccc(C(F)F)cc3C3CC3)n1Cc1ccc(C(F)(F)F)nc1)sc1c(O)c(Cl)ccc12 [Example 180] | < 100
COc1ccc(-c2nc3sc4c(O)c(C(=O)O)ccc4c3c(=O)n2Cc2cnco2)c(C2CC2)c1 [Example 34, 2-(2-cyclopropyl-4-methoxyphenyl)-8-hydroxy-3-(oxazol-5-ylmethyl)-4-oxo-3,4-dihydrobenzo[4,5]thieno[2,3-d]pyrimidine-7-carboxylic acid] | 1000 to 100000
O=c1c2c(nc(-c3ccc(C(F)(F)F)nc3C3CC3)n1Cc1cnco1)sc1c(O)c(Cl)ccc12 [Example 92] | < 100
COc1ccc(-c2nc3sc4c(OC(C)=O)c(Cl)ccc4c3c(=O)n2Cc2cnco2)c(C2CC2)c1 [Example 27, 7-chloro-2-(2-cyclopropyl-4-methoxyphenyl)-3-(oxazol-5-ylmethyl)-4-oxo-3,4-dihydrobenzo[4,5]thieno[2,3-d]pyrimidin-8-yl acetate] | < 100
O=c1c2c(nc(-c3cc(F)c(F)cc3C3CC3)n1Cc1ccc(C(F)(F)F)nc1)sc1c(O)c(Cl)ccc12 [Example 162] | < 100
O=c1c2c(nc(-c3ncc(F)cc3C3CC3)n1Cc1cnco1)sc1c(O)c(Cl)ccc12 [Example 89] | < 100
COc1ccc(-c2nc3sc4c(O)c(Cl)ccc4c3c(=O)n2Cc2cnco2)c(C2CC2)n1 [Example 93] | < 100
O=c1c2c(nc(-c3cc(F)c(F)cc3C3CC3)n1Cc1ccns1)sc1c(O)c(Cl)ccc12 [Example 212] | < 100
O=c1c2c(nc(-c3cc(F)c(F)cc3C3CC3)n1Cc1nn[nH]n1)sc1c(O)c(Cl)ccc12 [Example 213] | 1000 to 100000
O=c1c2c(nc(-c3ncc(F)cc3C3CC3)n1Cc1ccc(C(F)(F)F)nc1)sc1c(O)c(Cl)ccc12 [Example 102] | < 100
COc1ccc(-c2nc3sc4c(O)c(Cl)ccc4c3c(=O)n2CCc2cnco2)c(C2CC2)c1 [Example 188, 7-chloro-2-(2-cyclopropyl-4-methoxyphenyl)-8-hydroxy-3-(2-(oxazol-5-yl)ethyl)benzo[4,5]thieno[2,3-d]pyrimidin-4(3H)-one] | 100 to 500
O=c1c2c(nc(-c3ccc(C(F)F)cc3C3CC3)n1Cc1cnc(C(F)(F)F)nc1)sc1c(O)c(Cl)ccc12 [Example 177] | < 100
COc1ccc(-c2nc3sc4c(O)c(Cl)ccc4c3c(=O)n2Cc2ncc(C)o2)c(C2CC2)c1 [Example 200, 7-chloro-2-(2-cyclopropyl-4-methoxyphenyl)-8-hydroxy-3-((5-methyloxazol-2-yl)methyl)benzo[4,5]thieno[2,3-d]pyrimidin-4(3H)-one] | < 100
COCCOc1ccc(-c2nc3sc4c(O)c(Cl)ccc4c3c(=O)n2Cc2cnco2)c(C2CC2)c1 [Example 74] | < 100
COc1ccc(Cn2c(-c3cc(F)c(F)cc3C3CC3)nc3sc4c(O)c(Cl)ccc4c3c2=O)cn1 [Example 168] | < 100
COc1ccc(-c2nc3sc4c(O)c(Cl)ccc4c3c(=O)n2Cc2cnc(C(F)F)s2)c(C2CC2)c1 [Example 197] | < 100
